According to a melting point compilation (Tetko et al.; mined from patent text by program, amines drawn as free bases though some values may be those of a salt):

Point of comparison: `Cc1ccc(Cn2c(NC3CCNCC3)nc3cnccc32)o1`, melting point 186 °C. Against it:
- COC(=O)C1=C(C)NC(C)=C(C(=O)OC(C)C)C1c1cccc([N+](=O)[O-])c1 (centres undefined) — lower, 142 to 144 °C
- O=C(O)C(CCCN1C(=O)c2ccccc2C1=O)NS(=O)(=O)c1ccc(-c2ccc(Cl)cc2)cc1 (centres undefined) — lower, 179 to 181 °C
- O=C(O)CN1C(=O)C2C3C=CC(CC3)C2C1=O (centres undefined) — lower, 142 °C
- CCCCc1c(C(=O)C(Cl)(Cl)Cl)c2ccccc2n1C — lower, 112 to 115 °C
- COc1cc(OC)c(C(=O)CC(O)C(=O)O)cc1OC (centres undefined) — lower, 145 to 147 °C
- Cc1ccc(NC(=O)c2ccccc2[N+](=O)[O-])cc1C(F)(F)F — lower, 172 to 173 °C
- N#CCC(=O)Cc1cccc(C(F)(F)F)c1 — lower, 82 to 83 °C
- CC(CC(F)(F)C(F)(F)C(F)(F)C(F)(F)CC(C)C(=O)O)C(=O)O (centres undefined) — lower, 166 to 168 °C
- CCCN(CC)C1(c2ccccc2)c2ccccc2OC1[N+](=O)[O-] (centres undefined) — lower, 99 to 100 °C
- CCOCCOCCOc1ccc(C(=O)OC)cc1F — lower, 33 to 36.5 °C
- O=C1NC2=C(C=CCC2)S(=O)(=O)c2cc(C(F)(F)F)ccc21 — higher, 240 to 241 °C
- CCOC(=O)Cn1c(C(=O)NCc2nnc(C)n2-c2sc(CC)cc2C(=O)c2ccccc2Cl)cc2cc(F)ccc21 — lower, 125 to 127 °C
- CC(=O)c1c(-c2ccc(Cl)cc2)c(-c2ccc(Cl)cc2)nn(CCN(C)C)c1=O — lower, 149 to 150 °C
- CC(=O)NCc1ccc(Cl)nc1 — lower, 76 to 77 °C
- COc1cc(NCCCCCCN2CCN(C(=O)OCc3ccccc3)CC2)c2nccc(C)c2c1 — lower, 73 to 73.5 °C
- COC(=O)c1[nH]c2c(C)ccc(C)c2c1C(=O)OC — lower, 143 to 144 °C
- COc1cc(N2CCN(c3c(C)c(C)c4c(c3C)CC(C)(C)O4)CC2)ccc1Cl — lower, 168 to 171 °C
- O=S(=O)(Cc1ccccc1)N1CCC[C@H]1C(=S)OCCCc1ccccc1 — lower, 62 to 64 °C
- NOCc1cn(C(c2ccccc2)(c2ccccc2)c2ccccc2)cn1 — lower, 138 to 139 °C
- CC(C)(C)OC(=O)NCCN1CC2CN(Cc3ccccc3)CC(C1)O2 — lower, 58 to 60 °C
- O=C1c2ccccc2C(=O)N1c1ncnc2[nH]ccc12 — higher, 276 to 277 °C
- c1ccc2c(N3CCN(CCc4ccc(-c5csnn5)cc4)CC3)nsc2c1 — higher, 257 to 259 °C
- CCCCC(CC)CNc1cccc(-c2ccnc3c(C(=O)c4cccs4)cnn23)c1 (centres undefined) — lower, 134 to 138 °C
- O=C(O)c1cc([N+](=O)[O-])cc2c1Nc1ccc(CCc3ccc(Cl)c(Cl)c3)cc1O2 — higher, > 250 °C
- C[C@]12CC[C@@H]3c4ccc(O)cc4CC[C@H]3[C@@H]1CCC2=C(F)F — lower, 154 to 156 °C
- C=C(C)c1cc(C(=O)OC)c(OCc2ccccc2)cc1OCc1ccccc1 — lower, 92 to 94 °C
- CCNc1nc2ccccc2n2c(CC)nnc12 — higher, 235 to 238 °C
- CCOC(=O)c1[nH]c(C)c(C)c1OCCCl — lower, 81 to 83 °C
- Clc1ccc2c(c1)CCc1cccc3c1C2CN=C3 (centres undefined) — lower, 106 °C
- COc1ccc(C2(CCN3CCC(C(=O)c4nc5ccccc5[nH]4)CC3)CCN(C(=O)c3cc(OC)c(OC)c(OC)c3)C2)cc1OC (centres undefined) — lower, 113 to 116 °C
- CCCCCCC1CCC(c2ccc(C(=O)CC(C)=O)cc2)CC1 (centres undefined) — lower, 74 °C
- CN(C)c1ccc(-c2cc3ccccc3o2)cc1 — lower, 178 to 181 °C
- COc1ccc(C(=O)N[C@@H](Cc2ccc(OC(=O)c3ccc(OC)cc3)cc2)C(=O)O)cc1 — lower, 171 to 174 °C
- Cc1cc(N2CCC(=O)CC2)nn2cnnc12 — higher, 196 to 199 °C
- CN1C[C@@H]2CN(c3ccc4nc(Br)cn4n3)C[C@@H]2C1 — lower, 144 to 146 °C
- CCN1C[C@H](CN2CCN(C(c3ccccc3)c3ccccc3)CC2)C[C@@H]2c3cccc4[nH]cc(c34)C[C@H]21 — higher, 203 to 205 °C
- CCOc1cc2c(Nc3cc(OC)c(Cl)cc3Cl)c(C#N)cnc2cc1N — higher, 230 to 233 °C
- CCc1cc2c(s1)SCC1CC(=O)N(c3ccc(Cl)cc3)N=C21 (centres undefined) — lower, 138 to 141 °C
- CCCCCc1c(/C=C/C(=O)O)n(C)c2cc(OC)ccc12 — lower, 157 to 158 °C
- CCCCNS(=O)(=O)c1cc(C(=O)O)cc(NCc2ccccc2)c1Oc1ccccc1 — higher, 212 °C
- CCCCCCCCCNC1=CC(=O)c2c(OC)ccc(OC)c2C1=O — lower, 85 to 86 °C
- CCCCCCCCCCCCCCCCOc1ccc(C(C)=O)o1 — lower, 72 to 76 °C
- Nc1nc(N)nc(NC2CCCCC2)n1 — lower, 151 °C
- COc1cc(OC)n2ncc(Br)c2n1 — higher, 188 to 190 °C
- CC1(C)OC(=O)C(Oc2ccc3sccc3c2)=C1c1ccc(S(C)(=O)=O)cc1 — lower, 150 to 152 °C
- COc1cc(CNC(=O)c2ccc3n2Cc2ccccc2N(C(=O)COc2ccc(Cl)cc2C)C3)ccc1O — lower, 167 to 168 °C
- CCOC(=O)c1cccc(Sc2nc(C)c(CC(=O)O)s2)n1 — lower, 140 to 142 °C
- COC(=O)C(C)NC(=O)NS(=O)(=O)C=Cc1ccccc1 (centres undefined) — lower, 138 to 140 °C
- CC(C)c1nn2ccccc2c1C=O — lower, 81 to 81.5 °C
- O=C(O)Cn1c(Cc2ccccc2)ccc(NS(=O)(=O)CCc2ccccc2)c1=O — lower, 165 to 167 °C
- CC(C)c1ccc(OC(C)(Cc2ccc(OCCNC(=O)c3ccc(-c4ccccn4)cc3)cc2)C(=O)O)cc1 (centres undefined) — lower, 141 to 143 °C
- COC(=O)c1cccc(-c2cc(-c3ccc(C(F)(F)F)cc3)on2)c1 — lower, 139 to 140 °C
- O=C1N[C@H](Cc2ccc(C(F)(F)F)c(F)c2)[C@H](c2ccc(F)cc2)O1 (racemic) — lower, 122 to 123 °C
- Cc1cccc(NC(=O)NCC(=O)N(c2ccccc2)c2cccc(Cl)c2)c1 — lower, 184 °C
- Cn1c(=O)[nH]c(=O)c2c1ncn2CC(=O)Nc1ccc(C2CCCC2)cc1 — higher, 295 to 300 °C
- O=C(Cc1ccccn1)N1CCC(C2c3ccc(Cl)cc3CCc3cccnc32)CC1 (centres undefined) — lower, 81.7 to 82 °C
- COC(=O)C(Oc1ccc(Cl)cc1)c1ccc(Oc2cccc(C(F)(F)F)c2)cc1 (centres undefined) — lower, 79 to 82 °C
- FC(F)(F)Oc1ccc(-c2csc(Nc3cc4ccccc4cn3)n2)cc1 — higher, 269 to 271 °C
- CC(=O)OCCCNC(=O)C1=C(C(=O)Nc2ccc(Cl)cc2F)CCCC1 — lower, 127 to 128 °C
- CC(C)(C)OC(=O)n1ncc2ccc(NC(=O)c3ccccc3O)cc21 — lower, 155 to 156 °C
- CCOc1cccc(CC(=O)O)c1OCCCc1cn(-c2ccc(C(F)(F)F)cn2)nc1C(C)C — lower, 141 to 142 °C
- CCCCCCCCCCCCCCCc1cc2cc(C(=O)O)ccc2[nH]1 — lower, 108 to 110 °C
- C=C(C)C(=O)OCCNC(=O)OCCOc1ccccc1-c1ccccc1OCCOC(=O)NCCOC(=O)C(=C)C — lower, 72 to 74 °C
- O=[N+]([O-])c1ccc(NN=C(c2ccccc2)c2ccc(O)cc2)c([N+](=O)[O-])c1 — higher, 224 to 225 °C
- CC(C)C(=CC(N)C(=O)O)CP(=O)(O)O (centres undefined) — higher, 201 °C
- CCO[C@@H]1[C@@H](OC)[C@H](C)O[C@@H](OC(=O)N(C(=O)CCC(=O)OC)c2ccc(-c3ncn(-c4ccc(OC(F)(F)C(F)(F)F)cc4)n3)cc2)[C@@H]1OC — lower, 72 to 76 °C
- CN(C)c1cc2ccc(OCc3ccccc3)cc2s1 — lower, 78 to 81 °C
- O=C1NN(c2ccc(Cl)cc2)C(=O)C1=CNc1ccccc1 — higher, 288 to 290 °C
- Cc1cccc(NCCC(N)=S)c1C — lower, 116 to 118 °C
- CN1C(=O)CCC2(C)C3CCC4(C)C(OCC(N)=O)CCC4C3CCC12 (centres undefined) — higher, 222 to 225 °C
- COc1cc(C)nc(NC(=O)NS(=O)(=O)c2c(C)nn(C)c2S(=O)(=O)N(C)C)n1 — higher, 215 to 217 °C
- CCC(O)(c1ccc(O)cc1)c1cccc(Cl)c1 (centres undefined) — lower, 132 to 134 °C
- CCOC(=O)Cc1ccc(NC(=O)C(C)C)cc1 — lower, 92.5 to 93.5 °C
- OC1CCc2cc3c(cc21)OCO3 (centres undefined) — lower, 92 to 94 °C
- CCCC(=O)c1cnc2c(C(C)=O)cccc2c1Nc1ccc(O)cc1C — lower, 183 to 185 °C
- CON1C=C2N=NC3=C(N2C1)N(c1cccc(Cl)c1)CC(C1CC1)=C3 — lower, 155 °C
- CC(C)(C1CCCCC1)C(NC(=O)c1ccc(Cl)cc1)NC(=NC#N)Nc1cccnc1 (centres undefined) — lower, 181 to 183 °C
- CC(C)[C@H](NC(=O)OCc1ccc2ccccc2n1)C(=O)N[C@@H](Cc1ccccc1)[C@@H](O)C[C@H](Cc1ccccc1)NC(=O)OCc1cccnc1 — lower, 159 to 163 °C
- COc1ccc(C(=O)N2CC[C@H](O)C2=O)cc1OCc1ccccc1 — lower, 166 to 167 °C
- CC1Oc2c(C(=O)[NH+]([O-])C3CN4CCC3CC4)cc(Cl)cc2N(C)C1=O (centres undefined) — higher, 188 to 190 °C
- CCCCCCCCCCCCCCOc1ccc(CN(C(C)=O)c2cccc(CBr)c2)cc1 — lower, 56 to 58 °C
- O=C(Cc1ccccc1)N1CCN(Cc2n[nH]c3cc(F)ccc23)CC1 — lower, 173 to 174 °C
- Cn1cc(C2=C(c3cccc(NC4COC(C)(C)OC4)c3)C(=O)NC2=O)c2ccccc21 — higher, 201 to 203 °C
- Cn1nnnc1-c1cnc2cc(Cl)ccc2c1O — higher, 350 to 351 °C
- COc1ccccc1N1CCN(CC(O)CS(=O)c2ccc(F)cc2)CC1 (centres undefined) — lower, 164 to 165 °C
- CCCC(=O)Nc1n[nH]c2cc(-c3ccc(F)cc3)ccc12 — higher, 232 °C
- C=CCn1c2ccccc2c2sccc(=O)c21 — lower, 67 to 68 °C
- CNC(=O)NCCN1CCC(=C2c3sccc3CCn3ccnc32)CC1 — lower, 159 °C
- COc1cc2c(cc1F)C1(CO2)C(=O)N(Cc2ccccc2)c2ccccc21 (centres undefined) — lower, 160 to 162 °C
- Cc1ccc(C2(O)CCN(CCCc3nnc4n3CCCCC4)CC2)cc1 — lower, 160 to 161 °C
- Fc1ccc(F)c(CN2CCNc3ncc(-c4ccc(N5CCOCC5)cc4)cc32)c1Cl — higher, 217 to 219 °C
- CCc1nn(C(=O)Oc2ccccc2)c(=O)n1C — lower, 141 °C
- O=S1(=O)c2ccccc2C(c2ccccc2)N1CCCl (centres undefined) — lower, 121 °C
- C=CC(=O)c1ccc(O)c(Cl)c1Cl — lower, 135 to 137 °C
- OC(C=Cc1ccccc1)Cn1ccnc1 (centres undefined) — lower, 108 to 110 °C
- CCCSc1ncnc2c(N3CCCCC3)nc(Cl)nc12 — lower, 107 to 109 °C
- CC(=O)OCCC(=O)C1CCC2C3CCC4CC(O)CCC4(C)C3C(=O)CC12C (centres undefined) — lower, 113 to 115 °C
- COc1nc2cc(Br)cc(C=O)c2nc1OC — lower, 179 to 182 °C
